Results: US11000033B2, “Ketone or oxime compound, and herbicide” (NISSAN CHEMICAL CORPORATION, priority 2014, dated 2021)

Experiments:
Type in all cases: in vivo
[1] = system: Amaranthus retroflexus; test: Test Example 5: herbicidal effect by foliage application, plastic box (symbol N); conditions: 320 g/ha, 3 weeks after application
Method in brief: (§1)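 Emulsion formulation, diluted with water to the intended rate, was applied uniformly to leaves by small sprayer. Recipients were 14-day greenhouse-grown seedlings (25° C. to 30° C.). Assessment followed at 3 weeks.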

[2] = system: Alopecurus myosuroides; test: Test Example 5: herbicidal effect by foliage application, plastic box (symbol J); conditions: 320 g/ha, 3 weeks after application
Method in brief: as §1

[3] = system: Amaranthus retroflexus; test: Test Example 4: herbicidal effect by soil treatment (symbol N); conditions: application herbicide amount 320 g/ha
Method in brief: (§2)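 Seeds were sown in sterilized diluvial soil, covered with about 1.5 cm of soil, and the soil surface was sprayed with a water-diluted emulsion of the compound at a predetermined rate. Plants grew in a greenhouse at 25° C. to 30° C.; effects were scored visually 3 weeks after application.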

[4] = system: Monochoria vaginalis; test: Test Example 1: herbicidal activity, application before weed generation in submerged conditions (symbol C); conditions: application herbicide amount 320 g/ha
Method in brief: (§3)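 Steps: alluvial soil flooded to 4 cm; weed seeds sown together; rice seedlings (2.5 leaf) transplanted; diluted emulsion applied to water surface the same day as sowing; plants grown at 25–30 °C in greenhouse; herbicidal effect rated on a 0–5 scale at 3 weeks.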

[5] = system: Monochoria vaginalis; test: Test Example 2: herbicidal activity, application during weed generation in submerged conditions (symbol C); conditions: Table 23; application herbicide amount 320 g/ha; grade 0-5 by criteria of Test Example 1
Method in brief: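 Treatment timing was the one- to two-leaf stage, with diluted emulsifiable compound dropped onto the paddy water (depth 4 cm) over alluvial soil. All three species grew from a mixed sowing in a 25° C. to 30° C. greenhouse. Injury was judged by eye 3 weeks on.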

[6] = system: Digitaria ciliaris; test: Test Example 4: herbicidal effect by soil treatment (symbol F); conditions: application herbicide amount 320 g/ha
Method in brief: as §2

[7] = system: Apera spica-venti; test: Test Example 4: herbicidal effect by soil treatment (symbol L); conditions: application herbicide amount 320 g/ha
Method in brief: as §2

[8] = system: Echinochloa oryzacola Vasing.; test: Test Example 1: herbicidal activity, application before weed generation in submerged conditions (symbol A); conditions: application herbicide amount 320 g/ha
Method in brief: as §3

[9] = system: Galium spurium; test: Test Example 5: herbicidal effect by foliage application, plastic box (symbol Q); conditions: 320 g/ha, 3 weeks after application
Method in brief: as §1

[10] = system: Cyperus difformis; test: Test Example 3: herbicidal effect by foliage application, Wagner pot (symbol E); conditions: application herbicide amount 320 g/ha
Method in brief: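 The compound, formulated as an emulsion and diluted with water to a predetermined rate, is applied uniformly to leaves of two-week-old seedlings growing in submerged alluvial soil at 25–30 °C. Rice is included. Each plant is assessed 3 weeks later using defined criteria.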

[11] = system: directly sowed rice plant; test: Test Example 3: effect on crop by foliage application, Wagner pot (symbol b); conditions: application herbicide amount 320 g/ha
Method in brief: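 Steps: fill a 1/10000-are Wagner pot with alluvial soil; add water and mix to submerge at 0.1–0.5 cm depth; sow rice plus Echinochloa crus-galli var. crus-galli, Leptochloa chinensis and Cyperus difformis; grow in a 25–30 °C greenhouse.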

[12] = system: Avena fatua; test: Test Example 5: herbicidal effect by foliage application, plastic box (symbol I); conditions: 320 g/ha, 3 weeks after application
Method in brief: as §1

[13] = system: Echinochloa crus-galli var. crus-galli; test: Test Example 5: herbicidal effect by foliage application, plastic box (symbol H); conditions: 320 g/ha, 3 weeks after application
Method in brief: as §1

[14] = system: rapeseed; test: Test Example 4: effect on crop by soil treatment (symbol g); conditions: application herbicide amount 320 g/ha
Method in brief: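 Crop seed is sown in spots together with several weed species in a box of sterilized diluvial soil. It is covered by about 1.5 cm of soil and kept in a greenhouse held between 25° C. and 30° C.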

## CON=C(C)CC1CC(OC(=O)COc2ccccc2)=C(c2c(C)cc(C)cc2C)C1=O (centres unmarked) [1-043]
[1]
  N: Amaranthus retroflexus, herbicidal effect grade: 3 (Herbicidal ratio of 40% or higher and lower than 70%)
[2]
  J: Alopecurus myosuroides, herbicidal effect grade: 5 (Herbicidal ratio of 90% or more (almost completely withered))
[3]
  N (Amaranthus retroflexus) herbicidal effect grade: 4 (Herbicidal ratio of 70% or higher and lower than 90%)
[4]
  Herbicidal effect grade, C: Monochoria vaginalis: 2 (Herbicidal ratio of 20% or higher and lower than 40%)
[5]
  Herbicidal effect grade, C: Monochoria vaginalis: 3 (Herbicidal ratio of 40% or higher and lower than 70%)
[6]
  F (Digitaria ciliaris) herbicidal effect grade: 5 (Herbicidal ratio of 90% or more (almost completely withered))
[7]
  L (Apera spica-venti) herbicidal effect grade: 5 (Herbicidal ratio of 90% or more (almost completely withered))
[8]
  Herbicidal effect grade, A: Echinochloa oryzacola Vasing.: 5 (Herbicidal ratio of 90% or more (almost completely withered))
[9]
  Q: Galium spurium, herbicidal effect grade: 3 (Herbicidal ratio of 40% or higher and lower than 70%)
[10]
  herbicidal effect on E, grade 0-5: 5 (Herbicidal ratio of 90% or more (almost completely withered))
[11]
  effect on crop b (directly sowed rice plant), grade 0-5: 5 (Herbicidal ratio of 90% or more (almost completely withered))
[12]
  I: Avena fatua, herbicidal effect grade: 5 (Herbicidal ratio of 90% or more (almost completely withered))
[13]
  H: Echinochloa crus-galli var. crus-galli, herbicidal effect grade: 5 (Herbicidal ratio of 90% or more (almost completely withered))
[14]
  g (rapeseed) effect on crop grade: 5 (Herbicidal ratio of 90% or more (almost completely withered))

## CON=C(C)CC1CC(OC(=O)C(C)Cl)=C(c2c(C)cc(C)cc2C)C1=O (centres unmarked) [1-042]
[1]
  N: Amaranthus retroflexus, herbicidal effect grade: 0 (Herbicidal ratio of 5% or lower (almost no effect))
[2]
  J: Alopecurus myosuroides, herbicidal effect grade: 5 (Herbicidal ratio of 90% or more (almost completely withered))
[3]
  N (Amaranthus retroflexus) herbicidal effect grade: 4 (Herbicidal ratio of 70% or higher and lower than 90%)
[4]
  Herbicidal effect grade, C: Monochoria vaginalis: 4 (Herbicidal ratio of 70% or higher and lower than 90%)
[5]
  Herbicidal effect grade, C: Monochoria vaginalis: 3 (Herbicidal ratio of 40% or higher and lower than 70%)
[6]
  F (Digitaria ciliaris) herbicidal effect grade: 5 (Herbicidal ratio of 90% or more (almost completely withered))
[7]
  L (Apera spica-venti) herbicidal effect grade: 5 (Herbicidal ratio of 90% or more (almost completely withered))
[8]
  Herbicidal effect grade, A: Echinochloa oryzacola Vasing.: 0 (Herbicidal ratio of 5% or lower (almost no effect))
[9]
  Q: Galium spurium, herbicidal effect grade: 0 (Herbicidal ratio of 5% or lower (almost no effect))
[10]
  herbicidal effect on E, grade 0-5: 5 (Herbicidal ratio of 90% or more (almost completely withered))
[11]
  effect on crop b (directly sowed rice plant), grade 0-5: 5 (Herbicidal ratio of 90% or more (almost completely withered))
[12]
  I: Avena fatua, herbicidal effect grade: 5 (Herbicidal ratio of 90% or more (almost completely withered))
[13]
  H: Echinochloa crus-galli var. crus-galli, herbicidal effect grade: 5 (Herbicidal ratio of 90% or more (almost completely withered))
[14]
  g (rapeseed) effect on crop grade: 4 (Herbicidal ratio of 70% or higher and lower than 90%)

## CON=C(C)C(c1ccc(F)cc1)C1CC(O)=C(c2c(C)cc(C)cc2C)C1=O (centres unmarked) [1-049]
[1]
  N: Amaranthus retroflexus, herbicidal effect grade: 0 (Herbicidal ratio of 5% or lower (almost no effect))
[2]
  J: Alopecurus myosuroides, herbicidal effect grade: 0 (Herbicidal ratio of 5% or lower (almost no effect))
[3]
  N (Amaranthus retroflexus) herbicidal effect grade: 0 (Herbicidal ratio of 5% or lower (almost no effect))
[4]
  Herbicidal effect grade, C: Monochoria vaginalis: 0 (Herbicidal ratio of 5% or lower (almost no effect))
[5]
  Herbicidal effect grade, C: Monochoria vaginalis: 0 (Herbicidal ratio of 5% or lower (almost no effect))
[6]
  F (Digitaria ciliaris) herbicidal effect grade: 0 (Herbicidal ratio of 5% or lower (almost no effect))
[7]
  L (Apera spica-venti) herbicidal effect grade: 0 (Herbicidal ratio of 5% or lower (almost no effect))
[8]
  Herbicidal effect grade, A: Echinochloa oryzacola Vasing.: 0 (Herbicidal ratio of 5% or lower (almost no effect))
[9]
  Q: Galium spurium, herbicidal effect grade: 0 (Herbicidal ratio of 5% or lower (almost no effect))
[10]
  herbicidal effect on E, grade 0-5: 0 (Herbicidal ratio of 5% or lower (almost no effect))
[11]
  effect on crop b (directly sowed rice plant), grade 0-5: 0 (Herbicidal ratio of 5% or lower (almost no effect))
[12]
  I: Avena fatua, herbicidal effect grade: 0 (Herbicidal ratio of 5% or lower (almost no effect))
[13]
  H: Echinochloa crus-galli var. crus-galli, herbicidal effect grade: 0 (Herbicidal ratio of 5% or lower (almost no effect))
[14]
  g (rapeseed) effect on crop grade: 0 (Herbicidal ratio of 5% or lower (almost no effect))

## CSCCON=C(C)CC1CC(O)=C(c2c(C)cc(C)cc2C)C1=O (centres unmarked) [1-029]
[1]
  N: Amaranthus retroflexus, herbicidal effect grade: 0 (Herbicidal ratio of 5% or lower (almost no effect))
[2]
  J: Alopecurus myosuroides, herbicidal effect grade: 5 (Herbicidal ratio of 90% or more (almost completely withered))
[3]
  N (Amaranthus retroflexus) herbicidal effect grade: 0 (Herbicidal ratio of 5% or lower (almost no effect))
[4]
  Herbicidal effect grade, C: Monochoria vaginalis: 0 (Herbicidal ratio of 5% or lower (almost no effect))
[5]
  Herbicidal effect grade, C: Monochoria vaginalis: 0 (Herbicidal ratio of 5% or lower (almost no effect))
[6]
  F (Digitaria ciliaris) herbicidal effect grade: 5 (Herbicidal ratio of 90% or more (almost completely withered))
[7]
  L (Apera spica-venti) herbicidal effect grade: 5 (Herbicidal ratio of 90% or more (almost completely withered))
[8]
  Herbicidal effect grade, A: Echinochloa oryzacola Vasing.: 4 (Herbicidal ratio of 70% or higher and lower than 90%)
[9]
  Q: Galium spurium, herbicidal effect grade: 3 (Herbicidal ratio of 40% or higher and lower than 70%)
[10]
  herbicidal effect on E, grade 0-5: 4 (Herbicidal ratio of 70% or higher and lower than 90%)
[11]
  effect on crop b (directly sowed rice plant), grade 0-5: 5 (Herbicidal ratio of 90% or more (almost completely withered))
[12]
  I: Avena fatua, herbicidal effect grade: 5 (Herbicidal ratio of 90% or more (almost completely withered))
[13]
  H: Echinochloa crus-galli var. crus-galli, herbicidal effect grade: 5 (Herbicidal ratio of 90% or more (almost completely withered))
[14]
  g (rapeseed) effect on crop grade: 3 (Herbicidal ratio of 40% or higher and lower than 70%)
